From ChEMBL document CHEMBL3627599, “The antioxidant properties of salicylate derivatives: A possible new mechanism of anti-inflammatory activity” (Bioorg Med Chem Lett, 2015) come the findings set out here.

Each structure is given as a SMILES string.

One data set in a line: Antioxidant activity assessed as DPPH free radical scavenging activity at 1 mM after 30 mins. The following applies: 0.5 h, 1000 µM. It counts as physicochemical.
`CC(=O)Nc1ccc(O)c(C(N)=O)c1`: the result was Active.

The nature of the next data set: Antioxidant activity assessed as DPPH free radical scavenging activity at 0.01 to 1 mM after 30 mins. The data set is classed as physicochemical. The following applies: 0.5 h, 1000 µM.
For `COc1ccc(O)c(C(=O)O)c1`, the result was Active.
In the case of `O=C(O)c1cc(O)ccc1O` [GENTISIC ACID], the outcome was Active.
With `O=C(O)c1cc([N+](=O)[O-])ccc1O`, the outcome was Active.
Turning to `COC(=O)c1cc(O)ccc1O` [METHYL 2,5-DIHYDROXYBENZOATE], the result was Active.
As to `Cc1ccc(O)c(C(=O)O)c1`, the result was Active.
On to `Nc1ccc(O)c(C(=O)O)c1` [MESALAMINE], for which the result was Active.
Turning to `NC(=O)c1cc(O)ccc1O`, the outcome was Active.
Consider `O=C(O)c1cc(Cl)ccc1O` [5-CHLOROSALICYLIC ACID], for which the result was Active.
On to `O=C(O)c1ccccc1O` [SALICYLIC ACID], for which the result was Active.
